# Laboratory results published in paper PMC12655172, “Borylated 5-Membered Ring Iminosugars: Synthesis and Biological Evaluation for Glycosidase Inhibition and Anticancer Properties for Application in Boron Neutron Capture Therapy (BNCT)—Part 2” (Pharmaceuticals, 2025).
# Key:
# β-D-glucosidase (almond) = test: Glycosidase inhibition (Table 3 panel); format: biochemical; settings: 1 mg/mL aqueous solution; run in water
# Method: (§1) All enzymes and para-nitrophenyl substrates were purchased from Sigma. Enzymes were assayed at 27 °C in citric acid (0.1 M)/disodium hydrogen phosphate (0.2 M) buffers at the optimum pH for the enzyme. The incubation mixture consisted of […] of 1 mg/mL aqueous solution of extract and […] of the appropriate […] para-nitrophenyl substrate made up in buffer at the optimum pH for the enzyme. The reactions were stopped by addition of […] 0.4 M glycine (pH 10.4) during the exponential phase of the reaction, which had been determined at the beginning using uninhibited assays in which water replaced the inhibitor. Final absorbances were read at 405 nm using a Versamax microplate reader (Molecular Devices, Wokingham, UK). Assays were carried out in triplicate, and the values given are means of the three replicates per assay. All reactions were run in water.
# [1] = tested on: β-D-glucuronidase (bovine liver); test: Glycosidase inhibition (Table 3 panel); format: biochemical; settings: 1 mg/mL aqueous solution; run in water
# Method: as §1
# [2] = tested on: T1, α-L-fucosidase (bovine kidney); test: Glycosidase inhibition (Table 2 panel); format: biochemical; settings: at 1000 μM
# T1 construct: purchased Sigma-Aldrich; host or cells: bovine kidney
# Procedure, shortened: (§2)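 Absorbance at 400 nm quantified para-nitrophenol liberated from […] para-nitrophenyl glycoside substrate, at the optimal pH for each enzyme […]. Na2CO3 […] terminated the reactions.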
# [3] = target: T2, β-D-galactosidase (bovine liver) (Bos taurus, UniProt F1MNT6); test: Glycosidase inhibition (Table 2 panel); format: biochemical; settings: at 1000 μM
# T2 sequence (F1MNT6 1-469): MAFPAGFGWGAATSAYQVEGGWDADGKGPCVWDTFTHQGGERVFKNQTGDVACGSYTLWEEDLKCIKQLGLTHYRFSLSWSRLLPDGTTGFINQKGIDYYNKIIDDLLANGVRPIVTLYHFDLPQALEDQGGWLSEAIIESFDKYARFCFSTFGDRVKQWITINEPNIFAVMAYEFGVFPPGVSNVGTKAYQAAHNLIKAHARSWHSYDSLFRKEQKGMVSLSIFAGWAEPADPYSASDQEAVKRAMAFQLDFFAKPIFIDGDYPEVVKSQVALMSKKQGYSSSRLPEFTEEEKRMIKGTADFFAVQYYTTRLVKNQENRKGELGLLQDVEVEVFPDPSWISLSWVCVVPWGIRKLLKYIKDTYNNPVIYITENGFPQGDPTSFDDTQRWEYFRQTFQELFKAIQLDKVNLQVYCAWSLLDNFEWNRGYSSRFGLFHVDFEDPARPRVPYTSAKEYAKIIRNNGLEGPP
# Procedure, shortened: as §2
# [4] = tested on: MCF10A (non-tumour derived normal breast cell line); test: Cancer screening, MTT growth inhibition; format: cell-based; settings: 25 µM of drug, 72 h
# several glycosidases = test: Glycosidase inhibition, whole Table 3 panel; format: biochemical; settings: Table 3 assay conditions
# Method: as §1
# [5] = Sample appearance on sample preparation in water; format: physicochemical; settings: 1 mL of water was added to 1 mg solid
# α-D-glucosidase (yeast) [6] = target: T3, α-D-glucosidase (yeast) (Saccharomyces cerevisiae, UniProt P53341); test: Glycosidase inhibition (Table 2 panel); format: biochemical; settings: at 1000 μM
# T3 construct: purchased Sigma-Aldrich
# Source text: (§3) The enzymes α-D-glucosidase (yeast), β-D-glucosidases (almond, bovine liver), α-D-galactosidase (coffee beans), β-D-galactosidase (bovine liver), α-D-mannosidase (Jack bean), β-D-mannosidase (snail), α-L-rhamnosidase (P. decumbens), α-L-fucosidase (bovine kidney), trehalase (porcine kidney), β-D-glucuronidases (E. coli, bovine liver), amyloglucosidase (A. niger), para-nitrophenyl glycosides, and various disaccharides were purchased from Sigma-Aldrich Co (St. Louis, MO, USA).
# (§4) Brush border membranes were prepared from the rat small intestine according to the method of Kessler et al., and were assayed at pH 6.8 for rat intestinal maltase using maltose. […] The reaction was stopped by heating at 100 °C for 3 min. After centrifugation (600 g; 10 min), the resulting reaction mixture was added to the Glucose CII-test Wako (Wako Pure Chemical Ind., Osaka, Japan). […] Other glycosidase activities were determined using an appropriate para-nitrophenyl glycoside as substrate at the optimum pH of each enzyme. The reaction mixture contained the substrate ([…]) and the appropriate amount of enzyme. The reaction was stopped by the addition of Na2CO3 (400 μM). The released para-nitrophenol was measured spectrometrically at 400 nm. All reactions were run in methanol.
# [7] = tested on: T4, β-D-glucuronidase (E. coli); test: Glycosidase inhibition (Table 2 panel); format: biochemical; settings: at 1000 μM
# T4 construct: purchased Sigma-Aldrich
# Source text: as §3, §4
# [8] = tested on: T5, amyloglucosidase (A. niger); test: Glycosidase inhibition (Table 2 panel); format: biochemical; settings: at 1000 μM
# T5 construct: purchased Sigma-Aldrich
# Source text: as §3, §4
# α-D-glucosidase (yeast) [9] = target: T3, α-D-glucosidase (yeast); test: Glycosidase inhibition (Table 3 panel); format: biochemical; settings: 1 mg/mL aqueous solution; run in water
# Method: All enzymes and para-nitrophenyl substrates were purchased from Sigma. Enzymes were assayed at 27 °C in citric acid (0.1 M)/disodium hydrogen phosphate (0.2 M) buffers at the optimum pH for the enzyme. The incubation mixture consisted of […] of 1 mg/mL aqueous solution of extract and […] of the appropriate 5 μM para-nitrophenyl substrate made up in buffer at the optimum pH for the enzyme. […] Assays were carried out in triplicate, and the values given are means of the three replicates per assay. All reactions were run in water.
# T3 sequence (P53341 whole entry): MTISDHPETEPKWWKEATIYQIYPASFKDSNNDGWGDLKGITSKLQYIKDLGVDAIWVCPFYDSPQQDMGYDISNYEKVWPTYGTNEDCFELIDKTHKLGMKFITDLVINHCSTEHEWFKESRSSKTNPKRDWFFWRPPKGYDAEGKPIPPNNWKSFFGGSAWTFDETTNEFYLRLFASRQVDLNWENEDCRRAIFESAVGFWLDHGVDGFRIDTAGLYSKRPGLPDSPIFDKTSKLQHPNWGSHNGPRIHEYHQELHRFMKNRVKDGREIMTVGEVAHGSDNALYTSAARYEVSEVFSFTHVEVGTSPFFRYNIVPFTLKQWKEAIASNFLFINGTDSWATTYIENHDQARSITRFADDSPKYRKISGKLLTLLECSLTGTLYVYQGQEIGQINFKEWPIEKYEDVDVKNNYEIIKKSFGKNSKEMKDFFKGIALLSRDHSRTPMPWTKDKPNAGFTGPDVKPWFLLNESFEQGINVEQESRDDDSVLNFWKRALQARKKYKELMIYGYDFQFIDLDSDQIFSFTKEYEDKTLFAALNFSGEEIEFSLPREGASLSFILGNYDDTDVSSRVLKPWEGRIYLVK
substance,measurement,setting,value
"Borocaptate sodium [BSH, reference compound]",Percentage inhibition β-D-Glucosidase Almond,β-D-glucosidase (almond),47.3%
same,Percentage inhibition β-D-Glucuronidase Bovine Liver,[1],31.6%
same,inhibition % α-L-Fucosidase Bovine Kidney,[2],^aNI ^b(0%)
same,inhibition % β-D-Galactosidase Bovine Liver,[3],^aNI ^b(0%)
same,DOSE SCREEN percentage (%) cell growth inhibition MCF10A Breast (normal),[4],* 8 ± 3%
same,Inhibition over the glycosidases of Table 3,several glycosidases,31.6–65.9%
same,Sample Appearance,[5],In solution
same,inhibition % α-D-Glucosidase Yeast,α-D-glucosidase (yeast) [6],^aNI ^b(6.9%)
same,inhibition % β-D-Glucuronidase E. coli,[7],^aNI ^b(6%)
same,inhibition % Amyloglucosidase A. niger,[8],^aNI ^b(0%)
same,Percentage inhibition α-D-Glucosidase Yeast,α-D-glucosidase (yeast) [9],59%
